Measured values from US20110065754A1 (priority 2009, published 2011).

How the values were obtained:
Ebola Zaire Virus = assay type: cell-based, Ebola virus (strain Zaire)
Marburg Ci67 = assay type: cell-based, Marburg virus
[1] = mouse, in vivo
[2] = system: Ebola virus (strain Zaire); design: species or system Balb/c mice; details: mouse, in vivo
Ebola Zaire = system: Ebola Zaire; design: species or system C57Bl/6 mice; details: mouse, in vivo
Marburg Ravn = system: Marburg Ravn; design: species or system Balb/c mice; details: mouse, in vivo
[3] = mouse

Row | SMILES | IC50 (Ebola Zaire Virus) [µM] | IC50 (Marburg Ci67) [µM] | weight loss compared to vehicle only control [1] | survival rate [2] [%] | protection against Ebola virus (survival) (Ebola Zaire) | protection against Marburg virus (survival) (Marburg Ravn) | reversibility of symptoms after end of treatment [1] | weight loss [1] | weight loss or adverse effects in vivo [3]
1 | CCCCCCCCCN1C[C@H](O)[C@@H](O)[C@H](O)[C@H]1CO [NN-DNJ, N-Nonyl deoxynojirimycin] | 12 | – | – | – | – | – | – | – | –
2 | COCCCCCCCCCN1C[C@H](O)[C@@H](O)[C@H](O)[C@H]1CO [Compound N9-DNJ, N-(9-Methoxynonyl) deoxynojirimycin] | 16 | 32 | did not show any significant signs of weight loss | – | – | – | – | – | –
3 | [N-]=[N+]=Nc1ccc(NCCCCCCN2C[C@H](O)[C@@H](O)[C@H](O)[C@H]2CO)c([N+](=O)[O-])c1 [NAP-DNJ, N—(N-{4′-azido-2′-nitrophenyl}-6-aminohexyl)deoxynojirimycin] | 6 | 6 | did not show any significant signs of weight loss | 71 | significant protection | protection | symptoms promptly ceased when treatment was done | did not show signs of weight loss | no weight loss or adverse effects observed
4 | CCCCN1C[C@H](O)[C@@H](O)[C@H](O)[C@H]1CO [NB-DNJ, N-Butyl deoxynojirimycin] | 32 | – | did not show any significant signs of weight loss | – | – | – | – | – | –
5 | CCCOCCCCCCN1C[C@H](O)[C@@H](O)[C@H](O)[C@H]1CO [Compound N7-O-DNJ, N-(7-Oxadecyl)deoxynojirimycin] | 20 | 50 | – | – | – | – | – | – | –
